Consider 13 compounds from publication PMC10880585 (ACS infectious diseases, 2023).

Like-named read-outs stand apart in the source and are kept apart here.

Series [1] has as its system P. falciparum strain 3D7. The series can be described thus: P. falciparum growth inhibition assay. Format: cell-based, Plasmodium falciparum. The conditions noted are these: read-out: Pf IC50.
Series [2] concerns the target T1, P. falciparum DXR (Plasmodium falciparum, UniProt O96693).
T1 sequence (O96693 73-488): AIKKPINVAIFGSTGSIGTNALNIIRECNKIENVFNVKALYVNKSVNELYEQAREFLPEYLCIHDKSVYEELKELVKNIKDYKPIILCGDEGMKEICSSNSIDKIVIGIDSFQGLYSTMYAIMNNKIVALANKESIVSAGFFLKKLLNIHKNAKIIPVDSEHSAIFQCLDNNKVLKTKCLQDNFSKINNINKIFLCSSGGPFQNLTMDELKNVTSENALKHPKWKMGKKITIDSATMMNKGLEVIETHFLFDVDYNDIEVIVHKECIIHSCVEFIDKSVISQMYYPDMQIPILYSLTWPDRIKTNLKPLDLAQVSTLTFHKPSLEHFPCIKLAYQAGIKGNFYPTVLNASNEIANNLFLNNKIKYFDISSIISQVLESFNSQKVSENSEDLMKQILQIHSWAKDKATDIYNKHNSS
Kind of series: biochemical.

For series [3], the target named is T1, P. falciparum DXR.
In series [4] the test system is P. falciparum strain 3D7. The series can be described thus: IPP rescue of P. falciparum growth inhibition. Particulars: 250 μM IPP added to culture media, 72 h.
Another series deals with HepG2 cells. Kind of series: HepG2 cytotoxicity assay. The conditions noted are these: for IC50: Homo sapiens, HepG2, 24 h, read-out: HepG2 IC50; for cytotoxicity against HepG2: result in words.
Series [5] is described as follows: Metabolic stability in mouse liver microsomes. For orientation: Liver microsomes are vesicles of endoplasmic reticulum, rich in cytochrome P450 enzymes.
Series [6] concerns HAD1 mutant P. falciparum strain. The series can be described thus: Growth inhibition of had1 mutant P. falciparum. The series is classed as cell-based, Plasmodium falciparum. Particulars: had1 mutant vs wild-type 3D7.
The conditions of series [7]: following iv dosing; cited from earlier work.
Setting [8] is: Plasmodium falciparum, 3D7, Erythrocyte, 72 h.

In the case of `CCOP(=O)(/C=C/CN(O)C(=O)c1ccccc1)OCC` [10a, Diethyl [(1E)-3-(N-Hydroxy-1-phenylformamido)prop-1-en-1-yl]phosphonate], in the series on P. falciparum strain 3D7 [1] (setting [8]), the IC50 is more than 319000 nM.
On the same count and under the same terms, the same measure for `CCOP(=O)(/C=C/CN(O)C(=O)Cc1ccccc1)OCC` [10b, Diethyl [(1E)-3-(N-Hydroxy-2-phenylacetamido)prop-1-en-1-yl]phosphonate]: 337000 nM; for `CCOP(=O)(/C=C/CN(O)C(=O)CCc1ccccc1)OCC` [10c, Diethyl [(1E)-3-(N-Hydroxy-3-phenylpropanamido)prop-1-en-1-yl]phosphonate]: more than 293000 nM; for `CCOP(=O)(/C=C/CN(O)C(=O)CCCc1ccccc1)OCC` [10d, Diethyl [(1E)-3-(N-Hydroxy-4-phenylbutanamido)prop-1-en-1-yl]phosphonate]: 31200 nM.
For the compound `O=C(Cc1ccccc1)N(O)C/C=C/P(=O)(O)O` [11b, Sodium Hydrogen [(1E)-3-(N-Hydroxy-2-phenylacetamido)prop-1-en-1-yl]phosphonate], the IC50 stood at 170 nM against P. falciparum DXR [2] and 468 nM in the series with P. falciparum strain 3D7 [1] (setting [8]).
For `O=C(CCc1ccccc1)N(O)C/C=C/P(=O)(O)O` [11c, Sodium Hydrogen [(1E)-3-(N-hydroxy-3-phenylpropanamido)prop-1-en-1-yl]phosphonate] the same measures were 1340 nM and 10800 nM.
For `O=C(CCCc1ccccc1)N(O)C/C=C/P(=O)(O)O` [11d, Sodium Hydrogen [(1E)-3-(N-Hydroxy-4-phenylbutanamido)prop-1-en-1-yl]phosphonate], the IC50 on P. falciparum DXR [3] (read-out: Pf DXR IC50) turned out to be 898 nM; in the series with P. falciparum strain 3D7 [1] (setting [8]), 4980 nM.
As for `CC(C)(C)C(=O)OCOP(=O)(/C=C/CN(O)C(=O)c1ccccc1)OCOC(=O)C(C)(C)C` [13a, [({[(2,2-Dimethylpropanoyl)oxy]methoxy}[(1E)-3-(N-hydroxy-1-phenylformamido)-prop-1-en-1-yl]phosphoryl)oxy]-methyl 2,2-dimethylpropanoate], in the series with P. falciparum strain 3D7 [4], the “rescue of treated parasites by IPP” value was “rescued”. The IC50 is more than 50000 nM with HepG2 cells and 200 nM with P. falciparum strain 3D7 [1] (setting [8]). Moreover, the “cytotoxicity against HepG2” value with HepG2 cells is reported as “non-toxic”. This compound showed a half-life at 1 μM in series [5] (mouse, liver microsomes, pH 7.4) of less than 5 min. The “resistance of parasites with elevated intracellular DXP” value (from here on “resistance of parasites”) in series [6] is reported as “resistant”.
Consider `CC(C)(C)C(=O)OCOP(=O)(/C=C/CN(O)C(=O)Cc1ccccc1)OCOC(=O)C(C)(C)C` [13b, [({[(2,2-Dimethylpropanoyl)oxy]methoxy}[(1E)-3-(N-hydroxy-2-phenylacetamido)prop-1-en-1-yl]phosphoryl)oxy]-methyl 2,2-Dimethylpropanoate], for which the IC50 in the series on P. falciparum strain 3D7 [1] (setting [8]) was 304 nM.
Turning to `CC(C)(C)C(=O)OCOP(=O)(/C=C/CN(O)C(=O)CCCc1ccccc1)OCOC(=O)C(C)(C)C` [13d, [({[(2,2-Dimethylpropanoyl)oxy]methoxy}[(1E)-3-(N-hydroxy-4-phenylbutanamido)prop-1-en-1-yl]phosphoryl)-oxy]methyl 2,2-Dimethylpropanoate], the IC50 with P. falciparum strain 3D7 [1] (setting [8]) worked out at 4550 nM.
Consider `O=CN(O)CCCP(=O)(O)O` [compound 1, Fosmidomycin, reference compound], for which the “rescue of treated parasites by IPP” value in the series with P. falciparum strain 3D7 [4] is “rescued”. In addition, in series [6], the “resistance of parasites” value was “higher resistance”. In series [7], the renal excretion was 85%. For the same compound, the IC50 in the series with P. falciparum strain 3D7 [1] (setting [8]) amounted to 1020 nM.
In the case of `CC(=O)N(O)CCCP(=O)(O)O` [compound 2, FR-900098, reference compound], the IC50 in the series with P. falciparum strain 3D7 [1] ([…], 3 days, PicoGreen) was determined as 511 nM.
Take `N.N.O=C(c1ccccc1)N(O)C/C=C/P(=O)(O)O` [compound 11a, Diammonium [(1E)-3-(N-Hydroxy-1-phenylformamido)-prop-1-en-1-yl]phosphonate]: the “rescue of treated parasites by IPP” value in the series with P. falciparum strain 3D7 [4] was “rescued”. Moreover, in the series with HepG2 cells, the IC50 is more than 50000 nM and the “cytotoxicity against HepG2” value is “non-toxic”. Moreover, the “time stable in MLM” value in series [5] (mouse liver microsomes) is recorded as “over 1 h”. The “improvement in activity against the enzyme” value at P. falciparum DXR [3] (11a vs saturated compound 4) is reported as 2 fold. The “resistance of parasites” value in series [6] is “resistant”. Moreover, the IC50 with P. falciparum strain 3D7 [1] (setting [8]) was determined as 369 nM.

For orientation: IC50 means the concentration at which inhibition is half-maximal. Usually half-life stands for the time in which the quantity being followed falls by half. Higher therefore signals slow decline.
